{"source": "patent US8785400B2", "about": "“Methods and compositions relating to islet cell neogenesis” (CureDM Group Holdings, LLC, priority 2006, dated 2014)", "key": {"[1]": {"settings": "doses up to 10,000 IU/day; cited from earlier work"}, "[2]": {"system": "streptozocin-induced diabetic mouse", "assay": "Streptozocin-induced diabetic mouse (Example 6)", "type": "in vivo", "settings": "streptozocin mice; for mean reduction in glucose: from baseline, placebo 9.5%", "excerpt": "The streptozocin-induced diabetic mouse is a convenient animal model of type 1 diabetes because researchers are able to chemically induce diabetes under controlled conditions rather than waiting for mice to become diabetic naturally or by forcing diabetes through prescribed obesity. Based on experience with the streptozocin model in the rat, a high degree of variability was anticipated for the induction of the disease in mice and therefore 60 mice were induced with streptozocin. Mice were injected intraperitoneally with streptozocin at 40 mg/kg in citrate buffer, pH4.5, on 5 consecutive days in an attempt to render them diabetic. A mouse was considered diabetic once its blood glucose level was greater than 16.7 mmol/L (300 mg/dL) for at least 1 week. If the blood glucose level of any animal became too high (>400 mg/dL) the animal was treated with an effective amount of insulin. In this example, 60 male mice, ranging from 6-8 weeks old at the outset of the study, were treated with streptozocin as described above. Those mice that were declared diabetic were then used to test the effectiveness of HIP2 as compared to other test agents.\nAnimals were group housed in compliance with the National Research Council “Guide for the Care and Use of Laboratory Animals”. The animals received 12 hours light/12 hours dark, except when room lights were turned on during the dark cycle to accommodate study procedures. Room temperature was maintained between 18 to 26° C. at all times. Relative humidity was maintained between 30-70% at all times. All animals were given access to Harlan Teklad Rodent Diet or equivalent and tap water via water bottle. Animals were allowed to acclimate to their new environment for a minimum of 7 days prior to first dosing.\nMice were randomly divided and assigned to study groups. Each study group was assigned treatment with one of 5 test agents (see Treatment section below). Prior to being treated, each mouse was tested for diabetes via monitoring their blood glucose levels. After confirmation that the mice were diabetic (blood glucose levels greater than 16.7 mmol/L (300 mg/dL) for at least 1 week) the mice were dosed with their respective test agent.\nEach study group received doses of one of the following test agents: HIP2, HIP1, HIP, Hamster INGAP (SEQ ID NO:1) or isotonic saline “Vehicle” (0.9% NaCl) (negative control). Mice were given doses of their respective agent interperitoneally twice daily (am and pm, +/−2 hours for each administration) at 250 ug/dose, in 100 ul dose volume, for 28 consecutive days. Test agents were prepared once daily by dissolving the appropriate amount of test agent in isotonic saline to result in a 2.5 mg/ml solution. Blood glucose levels were tested every 3 days, at the same time each day, using a glucometer. If the blood glucose level in any animal became too high, the animal was treated with insulin. At the end of the treatment, all surviving animals were euthanized by CO2 asphyxiation following terminal blood collection. Blood samples were collected under CO2 cardiocentesis. The plasma was separated and then frozen at −80° C. For histological analysis, the pancreas from each mouse was removed and snap-frozen.\nBlood glucose levels are measured every 3 days and tracked to evaluate differences in glucose levels."}, "[3]": {"system": "human pancreatic progenitor cells", "assay": "Inverted microscopy of human ductal/progenitor tissue cultures (Example 4)", "type": "cell-based"}, "[4]": {"system": "pancreatic islets of treated mice", "assay": "Quantitative immunohistochemistry image analysis of mouse pancreata (Example 7)", "type": "in vivo", "excerpt": "The islet mass of the placebo group was 854,362 μm (2) compared with 2,161,782 μm (2) in HIP-treated mice.\nIslet size was not different between HIP treated and control group, whereas, islet number and mass was increased."}, "type 1 diabetes patients": {"system": "type 1 diabetes patients", "settings": "single course; after onset of type 1 diabetes, some patients; cited from earlier work"}, "diabetic patients": {"system": "diabetic patients", "settings": "cited from earlier work"}}}
{"compound": "C=C1CC[C@H](O)C/C1=C/C=C1\\CCC[C@]2(C)[C@@H]([C@H](C)CCCC(C)C)CC[C@@H]12", "note": "[Vitamin D, cholecalciferol]", "values": [{"measurement": "adverse effects", "setting": "[1]", "result": "No adverse effects"}]}
{"compound": "HIP: Human proIslet Peptide, 15-mer human counterpart of the hamster INGAP peptide (SEQ ID NO:2) (IGLHDPTQGTEPNGE; Fragment of naturally occurring human REG3 protein)", "values": [{"measurement": "overall insulin requirements lower compared to controls", "setting": "[2]", "result": 32, "unit": "%"}, {"measurement": "insulin requirements (and rate of decrease)", "setting": "[2]; compared to placebo", "result": "significant reduction"}, {"measurement": "mean reduction in glucose", "setting": "[2]", "result": 26.9, "unit": "%"}, {"measurement": "morphology of progenitor tissue cultures (FIG. 7A)", "setting": "[3]; day 2 of treatment (day 12)", "result": "forming a nidus of new insulin producing islets"}, {"measurement": "morphology of progenitor tissue cultures (FIG. 7B)", "setting": "[3]; day 6 of treatment (day 18)", "result": "forming insulin producing islet like structure"}, {"measurement": "islet size vs placebo/control", "setting": "[4]; mouse, in vivo", "result": "not statistically different"}, {"measurement": "number of islets counted greater than placebo group", "setting": "[4]; p=0.022", "result": 62, "unit": "%"}, {"measurement": "total islet mass greater than placebo group", "setting": "[4]; p=0.05", "result": 153, "unit": "%"}, {"measurement": "islets counted", "setting": "[4]; placebo 280", "result": 454}, {"measurement": "islet mass", "setting": "[4]; placebo 854,362", "result": "2,161,782 μm (2)"}, {"measurement": "total islet mass (qualitative)", "setting": "[4]; vs control", "result": "increased"}, {"measurement": "total islet number (qualitative)", "setting": "[4]; vs control", "result": "increased"}]}
{"compound": "hOKT3gamma1 (Ala-Ala): anti-CD3 monoclonal antibody", "values": [{"measurement": "duration of improvement in C-peptide responses and clinical parameters", "setting": "type 1 diabetes patients", "result": "at least 2 years"}]}
{"compound": "hamster INGAP: non-human islet neogenesis associated peptide, hamster sequence, positive control (SEQ ID NO:1) (IGLHDPSHGTLPNGS; Fragment of naturally occurring hamster INGAP protein)", "values": [{"measurement": "patients with a >50% increase in GAD65 antibody titers", "setting": "diabetic patients; 300 mg/day, Phase II", "result": "22 % of the patients"}, {"measurement": "C-peptide secretion", "setting": "diabetic patients; 600 mg/day", "result": "increase in C-peptide secretion"}, {"measurement": "tolerability", "setting": "diabetic patients; Phase I and II trials", "result": "well tolerated"}, {"measurement": "drop out due to injection site reactions", "setting": "diabetic patients; Phase II trial, diabetic patients", "result": "high drop out"}, {"measurement": "effectiveness", "setting": "diabetic patients; Phase II trial", "result": "Little effectiveness"}, {"measurement": "hemoglobin A1C", "setting": "diabetic patients; type 2 diabetes patients", "result": "fell"}, {"measurement": "overall insulin requirements lower compared to controls", "setting": "[2]", "result": 14, "unit": "%"}, {"measurement": "mean reduction in glucose", "setting": "[2]", "result": 20, "unit": "%"}]}
